Source: patent US5981497A, “Utilization of sophorolipids as therapeutically active substances or cosmetic products, in particular for the treatment of the skin” (Institut Francais du Petrole, priority 1995, dated 1999)
Like-named read-outs stand apart in the source and are kept apart here.

Key:
melanocytes = assay: Melanine dosage in melanocytes after 7 and 14 days; assay type: cell-based; details: for activity at 100 µM / activity at 10 µM / activity at 1 µM: Melanocyte, read-out: Melanine content; for activity at 100 µM: 10^-4M; for activity at 10 µM: 10^-5M; for activity at 1 µM: 10^-6M
Experimental: It is noted that cutaneous ageing causes epidermal functions to slow down: melanine no longer comes to the surface of the skin in a homogeneous manner and concentrates inside certain cells, and brown spots appear mainly on the hands, the forearms, and the neckline. […] Residues are picked up in PBS/triton X-100 (1% v/v) and sounds for 30 seconds. The cellular lysate is ultracentrifuged (105,000 rpm for 40 minutes at +4° C.). The residue that is obtained is then picked up in 1 ml of PBS. The proportion of protein is determined by the calorimetric method (Biorad) and then adjusted to 1.5 mg/ml.
100-(content of melanine of the tested product×100/content of melanine TN)
TN corresponds to the negative test.
As a result, again, the galenical forms are diverse. An example of an anti-spot cream for hands that is also used in cosmetics or in therapeutics is provided below, however: […]

in vitro = details: keratinocyte culture
Experimental: A keratinocyte culture that was placed under conditions that promote the differentiation of cells was selected as a cellular model for the study. The actions of sophorolipids in acid form A, sophorolipids in lactone form B, and lactic acid on the detachment of corneocytes of the selected cellular model were tested in vitro in parallel. In each experiment, the mean difference T60-T0 (corneocytes/ml), as well as the proportion of detached corneocytes, expressed in percentage relative to the negative test (%/TN), were determined.
Cellular viability, measured with the Neutral Red test, is expressed relative to the negative test (%).

[1] = test system: keratinocyte culture (detachment of corneocytes); assay: Desquamating test, detachment of corneocytes in vitro; assay type: cell-based; details: for T60-T0 mean difference: p less than 0.001; for activity at 100 µM / activity at 10 µM / activity at 1 µM: Keratinocyte, read-out: %/TN, proportion of detached corneocytes relative to the negative test
From the text: Variation coefficient CV is obtained as follows: [formula]
Actually, the therapeutic applications incidentally involve cosmetic applications.

[2] = Cytotoxicity on NCTC2544 at 24 hours (neutral red); assay type: cell-based; details: human, nctc2544 cells, read-out: Cellular Viability Rate; for viability at 24 h, 50000 µM: 5.10-2M; for viability at 24 h, 5000 µM: 5.10-3M; for viability at 24 h, 500 µM: 5.10-4M; for viability at 24 h, 10000 µM: 10^-2M; for viability at 24 h, 1000 µM: 10^-3M; for viability at 24 h, 100 µM: 10^-4M; for viability at 24 h, 10 µM: 10^-5M
From the text: (§1) Their innocuousness and their activity make it possible to use them in other stages of healing, namely granulation and epithelialization, by modulating their concentration in the formulas of products that are used. This is possible only because of the low cytotoxicity of sophorolipids, as Tables 3A and 3B show. The toxicity of the products of the invention has been evaluated with a viability test with neutral red on two cellular types of the skin, cells L929 and other fibroblasts of the dermis and cells NCTC 2544 and keratinocytes of the epidermis. The results, which are presented in Tables 3A, 3B, correspond to the rates of cellular viability that are expressed in % relative to the negative test.

[3] = Cytotoxicity on primocultures at 24 hours (neutral red), fibroblasts; assay type: cell-based; details: fibroblasts, 24 hours, read-out: Cellular Viability Rate; for viability at 24 h, 1000 µM: 10^-3M; for viability at 24 h, 100 µM: 10^-4M; for viability at 24 h, 10 µM: 10^-5M; for viability at 24 h, 1 µM: 10^-6M
From the text: as §1

fibroblasts = assay: as above; assay type: cell-based
From the text: as §1

| SMILES | viability at 1 µM (in vitro) | viability at 10 µM (in vitro) | viability at 100 µM (in vitro) | T60-T0 mean difference ([1]; 10^-4M) | T60-T0 mean difference ([1]; 10^-5M) | T60-T0 mean difference ([1]; 10^-6M) | activity at 100 µM ([1]; 10^-4M) | activity at 10 µM ([1]; 10^-5M) | activity at 1 µM ([1]; 10^-6M) | viability at 24 h, 50000 µM [2] | viability at 24 h, 5000 µM [2] | viability at 24 h, 500 µM [2] | viability at 24 h, 10000 µM [2] | viability at 24 h, 1000 µM [2] | viability at 24 h, 100 µM [2] | viability at 24 h, 10 µM [2] | viability at 24 h, 1000 µM [3] | viability at 24 h, 100 µM [3] | viability at 24 h, 10 µM [3] | viability at 24 h, 1 µM [3] | further results |
| --- | --- | --- | --- | --- | --- | --- | --- | --- | --- | --- | --- | --- | --- | --- | --- | --- | --- | --- | --- | --- | --- |
| CC(CCCCCC/C=C\CCCCCCCC(=O)O)O[C@@H]1O[C@H](CO)[C@@H](O)[C@H](O)[C@H]1O[C@@H]1O[C@H](CO)[C@@H](O)[C@H](O)[C@H]1O (stereo partly shown) [Sophorolipid in Acid Form] | 99.6% | 99.8% | 98.7% | 2278 corneocytes/ml | 1944 corneocytes/ml | 1555 corneocytes/ml | 195% | 167% | 133% | 6.35% | 8.34% | 99.9% | 7.12% | 100% | 100% | 101% | 85.7% | 98.3% | 98.7% | 99.7% | activity at 100 µM (melanocytes; 168 h, at day 7): 56.2%; activity at 10 µM (melanocytes; 168 h, at day 7): 65.8%; activity at 1 µM (melanocytes; 168 h, at day 7): 93.6%; activity at 100 µM (melanocytes; 336 h, at day 14): 56.8%; activity at 10 µM (melanocytes; 336 h, at day 14): 86.4%; activity at 1 µM (melanocytes; 336 h, at day 14): 95.4%; effect on synthesis of melanine (melanocytes; unlike linolenic acid): reduction in the synthesis of melanine; times less toxic than the lactone form (fibroblasts; Tables 3A and 3B): 10 times; Cellular Viability Rate (fibroblasts; fibroblasts, 24 hours, 10^-6M, 1 µM): 99.65 % relative to TN |
| CC1CCCCCC/C=C\CCCCCCCC(=O)O[C@H]2[C@H](O)[C@@H](O)[C@H](O[C@H]3[C@H](O1)O[C@H](CO)[C@@H](O)[C@@H]3O)O[C@@H]2CO (stereo partly shown) [Sophorolipid in Lactone Form] | 98.8% | 101% | 99.1% | 2389 corneocytes/ml | 1833 corneocytes/ml | 1528 corneocytes/ml | 205% | 157% | 131% | 5.86% | 6.44% | 8.7% | 6.49% | 6.17% | 85.2% | 95.5% | 5.96% | 91.2% | 100% | 101% |  |
